Source: the supplement of paper PMC3974653
Where a name gives a salt, the structure may show the parent alone.

What follows are compounds tested on MTT (mouse pheochromocytoma) (assay: IC50 of cell viability (ATP content)). Details: (24 or 48 h).
Method in brief: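 MTT mouse pheochromocytoma cells were seeded into white 1536-well plates at 5 µl per well from a 200,000 cells/ml suspension in DMEM with 5% FBS and 1% horse serum, then cultured overnight at 37°C, 5% CO2. A pintool added 23 nl of library compound in DMSO at 8 concentrations (final 0.5 nM to 46 µM) for 24 or 48 hrs, and CellTiter-Glo ATP luminescence was read after 15 minutes. Signals were scaled so that positive-control wells equalled 100% and DMSO wells 0%. IC50 values were derived by fitting a four-parameter logistic curve.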

| Structure (SMILES) | IC50 of cell viability [µM] |
| --- | --- |
| CC(=O)NC(Cc1ccccc1)C(=O)O (centres undefined) [AFALANINUM] | > 46 |
| CC(C)NCC(O)c1ccc(N[S+](C)(=O)[O-])cc1 (centres undefined) [SOTALOL] | > 46 |
| c1cnc(N2CCN(Cc3ccc4c(c3)OCO4)CC2)nc1 [PIRIBEDIL] | > 46 |
| OC[C@H]1O[C@H](C[C@@H]1O)N2\C=C(F)/C(=O)NC2=O [Floxuridine] | > 46 |
| NC(=O)C[S+]([O-])C(c1ccccc1)c1ccccc1 (centres undefined) [MODAFINIL] | > 46 |
| CCCC(=O)O[C@]1(C(=O)COC(=O)CC)CC[C@@H]2[C@@H]3CCC4=CC(=O)CC[C@]4(C)[C@H]3[C@@H](O)C[C@@]21C [HYDROCORTISONE PROBUTATE] | > 46 |
| CC(C)(C)NC(=O)[C@H]1CC[C@H]2[C@@H]3CC=C4C=C(C(=O)O)CC[C@@]4(C)[C@H]3CC[C@]12C [Epristeride] | > 46 |
| CCCN(CCC)C(=O)[C@@H](CCC(=O)O)NC(=O)c1ccccc1 [Proglumide] | > 46 |
| CCC1(c2cnc[nH]2)Cc2ccccc2C1 [Atipamezole] | > 46 |
| COC(C)(C)CCCC(C)C/C=C/C(C)=C/C(=O)OC(C)C (centres undefined) [Methoprene] | > 46 |
| CN1CCN2c3ncccc3Cc3ccccc3C2C1 (centres undefined) [Mirtazapine] | > 46 |
| COc1cc2c(cc1OC)C1CC(=O)C(CC(C)C)CN1CC2 (centres undefined) [Tetrabenazine] | > 46 |
| C[C@@]12CC(O)C3C(CCC/4=C/C(=O)/C=C\[C@]34C)C1CC[C@]2(O)C(=O)CO (some centres undefined) [PREDNISOLONE] | > 46 |
| CC1NCCOC1c1ccccc1 (centres undefined) [Phenmetrazine Hydrochloride] | > 46 |
| C=C/C=C/CC1=C(C)[C@@H](OC(=O)[C@@H]2[C@@H](/C=C(\C)C(=O)OC)C2(C)C)CC1=O.C=C/C=C/CC1=C(C)[C@@H](OC(=O)[C@@H]2[C@@H](C=C(C)C)C2(C)C)CC1=O [PYRETHRINS/Pestanal] | > 46 |
| CC(=O)CC/C=C(\C)CC/C=C(/C)CC/C=C(\C)CCC=C(C)C [TEPRENONE] | > 46 |
| CCCCCCCCOc1ccc(C(=O)c2ccccc2)c(O)c1 [OCTABENZONUM] | > 46 |
| CCc1oc2ccccc2c1C(=O)c1cc(Br)c(O)c(Br)c1 [benzbromarone] | > 46 |
| CCN(CC)CCOc1ccc2nc(N(C)C)sc2c1 [DIMAZOLE DIHYDROCHLORIDE] | > 46 |
| CC1CCC(NC(=O)N(CCCl)N=O)CC1 (centres undefined) [SEMUSTINE] | > 46 |
| CCC(=O)NCCC1CCc2ccc3c(c21)CCO3 (centres undefined) [RAMELTEON] | > 46 |
| O=[N+]([O-])c1ccc(F)c([N+](=O)[O-])c1 [1-Fluoro-2,4-dinitrobenzene] | > 46 |
| O[C@@H]1CO[C@H]2[C@@H]1OC[C@@H]2O [ISOSORBIDE] | > 46 |
| C[C@]12CCC3C(CC(=C)C\4=C\C(=O)\C=C/[C@@]34C)C1CCC2=O (some centres undefined) [EXEMESTANE] | > 46 |
| O=C(O)CCn1c2c(c3ccccc31)C[C@H](N[S+](=O)([O-])c1ccc(F)cc1)CC2 [RAMATROBAN] | > 46 |

| Structure (SMILES) | IC50 of cell viability [µM] |
| --- | --- |
| CC1CCC(O)C/C1=C\C=C1/CCCC2(C)C1CCC2C(C)/C=C/C(C)C(C)C (centres undefined) [DIHYDROTACHYSTEROL] | > 46 |
| N=C(N)Nc1ccc(C(=O)Oc2ccc3cc(C(=N)N)ccc3c2)cc1 [NAFAMOSTAT MESILATE] | > 46 |
| CN(C)CCc1c[nH]c2ccccc12 [N,N-Dimethyltryptamine] | > 46 |
| CC(C)NC(C)Cc1ccc(I)cc1.Cl (centres undefined) [Iofetamine hydrochloride] | > 46 |
| CC1(C)O[C@@H]2C[C@H]3[C@@H]4CCC/5=C/C(=O)/C=C\[C@]5(C)[C@@]4(F)[C@@H](O)C[C@]3(C)[C@@]2(O1)C(=O)CO [Triamcinolone acetonide] | > 46 |
| COc1ccc2[nH]c([S+]([O-])Cc3ncc(C)c(OC)c3C)nc2n1 (centres undefined) [TENATOPRAZOLE] | > 46 |
| CN(C)CCC=C1c2ccccc2CCc2ccccc21 [Amitriptyline] | > 46 |
| CCN(CC)CCN1C(=O)CN=C(c2ccccc2F)c2cc(Cl)ccc21 [flurazepam] | > 46 |
| O=C(NCCNCC(O)COc1ccc(O)cc1)N1CCOCC1 (centres undefined) [XAMOTEROL] | > 46 |
| Br.COc1ccc2c(c1)[C@]13CCCC[C@@H]1[C@H](C2)N(C)CC3.O [Dextromethorphan hydrobromide monohydrate] | > 46 |
| Cc1ccc(/C=N/n2c(-c3ccccc3)csc2=S)cc1 [FEZATIONE] | > 46 |
| O=C1/C=C(OC2=CC=CC=C12)/C3=CC=CC=C3 [Flavone] | > 46 |
| Nc1cc(-c2ccncc2)c[nH]c1=O [Amrinone] | > 46 |
| FCOC(C(F)(F)F)C(F)(F)F [SEVOFLURANE] | > 46 |
| CC(C)[N+](C)(CCC(C(N)=O)(c1ccccc1)c1ccccc1)C(C)C [Isopropamide iodide] | > 46 |
| COc1ccc(C(=O)Nc2ccccc2CCC2CCCCN2C)cc1 (centres undefined) [Encainide hydrochloride] | > 46 |
| C#C[C@]1(O)CC[C@H]2[C@@H]3CCC4=CC(=O)CC[C@@H]4[C@H]3CC[C@@]21CC [Levonorgestrel] | > 46 |
| c1ccc2c(CCC3CC[NH2+]CC3)c[nH]c2c1 [Indalpine] | > 46 |
| CCN(CC)C(=O)c1cc([S+](=O)([O-])Cc2ccccc2)c(N2CCC(c3ccccc3)CC2)cc1N(CC)CCN(C)C | > 46 |
| CCCOC1=C(C=CC=C1)\C2=N\C(=O)C3=C([NH]N=N3)N2 [Zaprinast] | > 46 |
| CC(=O)O[C@@]1(CC[C@@H]2[C@@H]3\C=C(C)/C4=C/C(=O)CC[C@@]4(C)[C@H]3CC[C@@]12C)C(C)=O [Megestrol acetate] | > 46 |
| O=C(CCCN1CCN2CCCC2C1)c1ccc(F)cc1 (centres undefined) [Azabuperona] | > 46 |
| CN1CCC[C@@H]1Cc1c[nH]c2ccc(CC[S+](=O)([O-])c3ccccc3)cc12 [ELETRIPTAN HYDROBROMIDE] | > 46 |
| O=C1O[C@H]([C@@H](O)CO)C(O)=C1O [L-Ascorbic acid] | > 46 |
| O=C1c2c(O)cccc2Cc2cccc(O)c21 [Anthralin] | > 46 |

| Structure (SMILES) | IC50 of cell viability [µM] |
| --- | --- |
| Oc1ccc(Cl)cc1Cc1ccccc1 [Clorophene] | > 46 |
| CN1c2ccccc2C(NCCCCCCC(=O)[O][Na])c2ccc(Cl)cc2[S+]1(=O)[O-] (centres undefined) [TIANEPTINUM] | > 46 |
| COc1cc(C(C)=O)ccc1OCCCN1CCC(c2noc3cc(F)ccc23)CC1 [Iloperidone] | > 46 |
| O=C(OCc1ccccc1)c1ccccc1 [Benzyl benzoate] | > 46 |
| O=C(NOCC1CC1)c1ccc(F)c(F)c1Nc1ccc(I)cc1Cl [CI-1040] | > 46 |
| Cc1nnc(N[S+](=O)([O-])c2ccc(N)cc2)s1 [Sulfamethizole] | > 46 |
| CC1=C(/C=C/C(C)=C/C=C/C(C)=C/CO)C(C)(C)CCC1 [Retinol] | > 46 |
| C=CCN1CCCC1CNC(=O)c1cc([S+](N)(=O)[O-])cc(OC)c1OC (centres undefined) [Veraliprida] | > 46 |
| NCCCNCCSP(=O)(O)O [Amifostine] | > 46 |
| C[C@H]1[C@H](O)[C@@H](C)/C=C/C=C/CC/C=C/C=C/C=C/C=C/[C@H](O[C@@H]2O[C@H](C)[C@@H](O)[C@H](N)[C@@H]2O)C[C@@H]2O[C@](O)(C[C@@H](O)[C@H](O)CC[C@@H](O)C[C@@H](O)C[C@@H](O)CC(=O)O[C@H]1C)C[C@H](O)[C@H]2C(=O)O [Nystatin] | > 46 |
| COC[C@@H](c1ccc(C(F)(F)F)cc1)N1CCN(C2(C)CCN(C(=O)c3c(C)ncnc3C)CC2)C[C@@H]1C [vicriviroc maleate] | > 46 |
| CC(C)(Oc1ccc(Cl)cc1)C(=O)O [Clofibric_acid] | > 46 |
| CN(C)CC/C=C1\c2ccccc2Sc2ccc(Cl)cc21 [Chlorprothixene] | > 46 |
| O=C(O)COc1ccc(C(=O)c2cccs2)c(Cl)c1Cl [ACIDUM TIENILICUM] | > 46 |
| O=C1OC2(c3ccccc31)c1cc(I)c(O)c(I)c1Oc1c2cc(I)c(O)c1I [Erythrosin B] | > 46 |
| COc1ccc(C(c2ccc(OC)cc2)C(Cl)(Cl)Cl)cc1 [Methoxychlor] | > 46 |
| CC(=O)Nc1ccc(/C=N/NC(N)=S)cc1 [THIOACETAZONUM] | > 46 |
| CC[C@H]1NC(=O)c2cc([S+](N)(=O)[O-])c(Cl)cc2N1 [Quinethazone] | > 46 |
| CCOC(=O)C(CCc1ccccc1)NC(C)C(=O)N1Cc2cc(OC)c(OC)cc2CC1C(=O)O (centres undefined) [MOEXIPRIL HYDROCHLORIDE] | > 46 |
| C[C@@H](O)[C@@H]1C(=O)N2C(C(=O)O)=C([C@H]3CCCO3)SC12 (some centres undefined) [Faropenem] | > 46 |
| C[C@H]1C2Cc3ccc(O)cc3[C@]1(C)CCN2CC1CC1 (single isomer, unassigned; (+)) [(+)-Cyclazocine] | > 46 |
| Clc1ccc(C2(Cn3cncn3)OCCO2)c(Cl)c1 [Azaconazole] | > 46 |
| ClC1=CC=C2N(CC3CC3)C(=O)C\N=C(\C4=CC=CC=C4)C2=C1 [PRAZEPAM] | > 46 |
| C[N+](C)(C)CCCCCCCCCC[N+](C)(C)C [DECAMETHONIUM] | > 46 |
